Measurements published in US12559506B2, “Indazole based compounds and associated methods of use” (Arvinas Operations, Inc., priority 2021, dated 2026).
Where two headings read alike, the source gives them in different places.

Biological target: T1, LRRK2 (endogenous, HiBit tagged) (Homo sapiens, UniProt Q5S007)
T1 construct: endogenous in cells; host or cells: HEK293 cells with HiBit knock-in at the endogenous LRRK2 locus, stably expressing firefly luciferase
Assay: Endogenous LRRK2 degradation assay, endogenous gene C-terminally HiBit-tagged in HEK293 cells (Nano-Glo Dual Luciferase)
Type: cell-based
Outline: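 LRRK2-HiBit quantified via Nano-Glo Dual Luciferase in HEK293 knock-in cells co-expressing firefly luciferase, after 24 h exposure to compound (1 μM final top, 1:3, 11 points). Values normalised to DMSO median per plate and curve-fitted; Alamar Blue viability run alongside.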

[1] = endogenous HiBit-tagged LRRK2 in HEK293 cells, 24 hours treatment, read-out: *Endogenous WT DC50
[2] = endogenous HiBit-tagged LRRK2 in HEK293 cells, 24 hours treatment, read-out: Endogenous WT DC50
[3] = endogenous HiBit-tagged LRRK2 in HEK293 cells, 24 hours treatment, read-out: Endogenous WT Dmax
[4] = endogenous HiBit-tagged LRRK2 in HEK293 cells, 24 hours treatment, read-out: **Endogenous WT Dmax (%)
[5] = endogenous HiBit-tagged LRRK2 in HEK293 cells, 24 hours, read-out: **Endogenous WT Dmax (%)
[6] = endogenous HiBit-tagged LRRK2 in HEK293 cells, 24 hours, read-out: *Endogenous WT DC50

T1 sequence (Q5S007 whole entry): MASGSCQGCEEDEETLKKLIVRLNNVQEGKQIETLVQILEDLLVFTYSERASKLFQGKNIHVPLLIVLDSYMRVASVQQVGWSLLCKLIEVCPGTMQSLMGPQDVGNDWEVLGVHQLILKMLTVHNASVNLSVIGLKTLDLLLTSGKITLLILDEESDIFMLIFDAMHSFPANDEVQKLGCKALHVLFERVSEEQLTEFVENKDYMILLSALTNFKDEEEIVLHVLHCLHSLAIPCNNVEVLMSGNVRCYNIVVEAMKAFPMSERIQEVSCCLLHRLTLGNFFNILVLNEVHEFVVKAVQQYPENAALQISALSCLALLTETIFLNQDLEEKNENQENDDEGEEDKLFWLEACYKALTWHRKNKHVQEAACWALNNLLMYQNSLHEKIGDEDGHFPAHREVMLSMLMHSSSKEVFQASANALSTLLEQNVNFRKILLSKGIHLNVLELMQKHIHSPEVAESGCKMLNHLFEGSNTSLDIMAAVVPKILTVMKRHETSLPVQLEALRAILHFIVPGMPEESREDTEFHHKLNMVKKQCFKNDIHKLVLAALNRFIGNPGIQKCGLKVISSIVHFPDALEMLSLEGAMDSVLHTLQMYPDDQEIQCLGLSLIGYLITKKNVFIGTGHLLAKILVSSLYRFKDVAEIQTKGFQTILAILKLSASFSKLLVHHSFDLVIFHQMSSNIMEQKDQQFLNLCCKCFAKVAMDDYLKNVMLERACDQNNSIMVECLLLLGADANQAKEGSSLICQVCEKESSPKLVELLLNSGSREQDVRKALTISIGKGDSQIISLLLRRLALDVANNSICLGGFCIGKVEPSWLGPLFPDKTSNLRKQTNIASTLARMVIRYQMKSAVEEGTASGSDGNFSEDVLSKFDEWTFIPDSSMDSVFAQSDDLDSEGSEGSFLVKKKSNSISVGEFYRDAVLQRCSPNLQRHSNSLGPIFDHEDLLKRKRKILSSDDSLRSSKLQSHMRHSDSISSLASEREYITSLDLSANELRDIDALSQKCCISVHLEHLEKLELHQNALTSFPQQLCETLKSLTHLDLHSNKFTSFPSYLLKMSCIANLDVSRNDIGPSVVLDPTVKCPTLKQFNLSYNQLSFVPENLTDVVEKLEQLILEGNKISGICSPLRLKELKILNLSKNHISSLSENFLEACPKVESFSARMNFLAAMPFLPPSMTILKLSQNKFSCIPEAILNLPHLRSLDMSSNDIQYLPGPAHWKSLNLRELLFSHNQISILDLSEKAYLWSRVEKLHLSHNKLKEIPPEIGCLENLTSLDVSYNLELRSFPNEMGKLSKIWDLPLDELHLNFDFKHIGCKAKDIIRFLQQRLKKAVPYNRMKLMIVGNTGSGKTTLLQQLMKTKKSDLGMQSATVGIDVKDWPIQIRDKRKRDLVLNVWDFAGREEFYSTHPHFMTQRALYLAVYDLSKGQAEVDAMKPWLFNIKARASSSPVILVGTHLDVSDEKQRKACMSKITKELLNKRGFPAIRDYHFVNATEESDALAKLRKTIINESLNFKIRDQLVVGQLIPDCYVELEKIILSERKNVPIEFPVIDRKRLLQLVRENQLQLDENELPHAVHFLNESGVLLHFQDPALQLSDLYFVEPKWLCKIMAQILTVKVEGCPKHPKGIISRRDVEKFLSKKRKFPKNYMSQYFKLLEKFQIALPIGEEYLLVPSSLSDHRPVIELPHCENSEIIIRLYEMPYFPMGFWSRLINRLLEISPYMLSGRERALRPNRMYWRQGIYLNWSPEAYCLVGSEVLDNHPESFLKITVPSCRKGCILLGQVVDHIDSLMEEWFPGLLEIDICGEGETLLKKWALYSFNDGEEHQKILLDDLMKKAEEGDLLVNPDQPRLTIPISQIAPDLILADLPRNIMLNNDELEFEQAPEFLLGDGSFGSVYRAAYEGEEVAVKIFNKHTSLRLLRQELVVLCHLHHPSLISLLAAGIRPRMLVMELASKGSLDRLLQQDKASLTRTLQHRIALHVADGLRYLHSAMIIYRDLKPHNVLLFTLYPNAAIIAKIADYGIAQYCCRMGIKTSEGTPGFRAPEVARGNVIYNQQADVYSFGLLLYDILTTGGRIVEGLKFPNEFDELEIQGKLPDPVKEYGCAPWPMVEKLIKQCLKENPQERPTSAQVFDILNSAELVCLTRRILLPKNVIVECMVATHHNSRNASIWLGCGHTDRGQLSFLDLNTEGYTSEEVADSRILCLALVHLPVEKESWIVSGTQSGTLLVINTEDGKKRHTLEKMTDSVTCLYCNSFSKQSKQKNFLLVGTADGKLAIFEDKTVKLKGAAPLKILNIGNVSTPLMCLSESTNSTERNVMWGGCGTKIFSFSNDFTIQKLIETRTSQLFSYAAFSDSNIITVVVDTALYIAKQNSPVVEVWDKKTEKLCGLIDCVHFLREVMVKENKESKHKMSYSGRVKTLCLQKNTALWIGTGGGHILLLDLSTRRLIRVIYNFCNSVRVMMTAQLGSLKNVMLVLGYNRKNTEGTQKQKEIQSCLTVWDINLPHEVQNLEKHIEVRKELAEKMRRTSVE

| DC50 [1] | DC50 [2] | Dmax [3] | Dmax [4] | SMILES | other results |
| --- | --- | --- | --- | --- | --- |
| < 10 nM | – | – | – | COc1c(N2CCC(CN3CCN(CC4CCN(c5cc(-c6n[nH]c7cc(F)c(OC8(C)CC8)cc67)ncn5)CC4)CC3(C)C)CC2)ccc2c1CN(C1CCC(=O)NC1=O)C2=O (stereo not shown) [Compound 349, 3-{5-[4-({4-[(1-{6-[6-fluoro-5-(1-methylcyclopropoxy)-1H-indazol-3-yl]pyrimidin-4-yl}piperidin-4-yl)methyl]-2,2-dimethylpiperazin-1-yl}methyl)piperidin-1-yl]-4-methoxy-1-oxo-2,3-dihydro-1H-isoindol-2-yl}piperidine-2,6-dione] | – |
| – | < 10 nM | 50 to 70% | – | COc1c(N2CCC(CN3CCN(CC4CCN(c5cc(-c6n[nH]c7cnc(OC8(C)CC8)cc67)ncn5)CC4)C(C)(C)C3)CC2)ccc2c1CN(C1CCC(=O)NC1=O)C2=O (stereo not shown) [Compound 250, 3-{5-[4-({3,3-dimethyl-4-[(1-{6-[5-(1-methylcyclopropoxy)-1H-pyrazolo[3,4-c]pyridin-3-yl]pyrimidin-4-yl}piperidin-4-yl)methyl]piperazin-1-yl}methyl)piperidin-1-yl]-4-methoxy-1-oxo-2,3-dihydro-1H-isoindol-2-yl}piperidine-2,6-dione] | – |
| – | – | – | – | CC1(Oc2ccc3[nH]nc(-c4cc(N5CCC(CN6CCN(CC7CCN(c8ccc9c(c8F)CN(C8CCC(=O)NC8=O)C9=O)CC7)CC6)CC5)ncn4)c3c2)CC1 (stereo not shown) [Compound 181, 3-[4-fluoro-5-[4-[[4-[[1-[6-[5-(1-methylcyclopropoxy)-1H-indazol-3-yl]pyrimidin-4-yl]-4-piperidyl]methyl]piperazin-1-yl]methyl]-1-piperidyl]-1-oxo-isoindolin-2-yl]piperidine-2,6-dione] | Dmax (endogenous HiBit-tagged LRRK2, HEK293 cells, 24 hours, read-out: **Endogenous WT Dmax (%)): ≥ 70%; DC50 (endogenous HiBit-tagged LRRK2, HEK293 cells, 24 hours, read-out: *Endogenous WT DC50): < 10 nM |
| < 10 nM | – | – | 50 to 70% | CC1(Oc2ccc3n[nH]c(-c4cc(N5CCC(O[C@H]6C[C@H](N7CC[C@@H](c8ccc9c(c8F)CN(C8CCC(=O)NC8=O)C9=O)[C@@H](F)C7)C6)CC5)ncn4)c3c2)CC1 (stereo partly shown) [Compound 297, 3-{4-fluoro-5-[(3r,4s)-3-fluoro-1-[(1r,3r)-3-[(1-{6-[5-(1-methylcyclopropoxy)-2H-indazol-3-yl]pyrimidin-4-yl}piperidin-4-yl)oxy]cyclobutyl]piperidin-4-yl]-1-oxo-2,3-dihydro-1H-isoindol-2-yl}piperidine-2,6-dione] | – |
| – | < 10 nM | 50 to 70% | – | COc1c(N2CCN(CC3(F)CCN(CC4CCN(c5cc(-c6[nH]nc7ccc(OC8(C)CC8)cc67)ncn5)CC4)CC3)CC2)ccc2c1CN(C1CCC(=O)NC1=O)C2=O (stereo not shown) [Compound 246, 3-{5-[4-({4-fluoro-1-[(1-{6-[5-(1-methylcyclopropoxy)-2H-indazol-3-yl]pyrimidin-4-yl}piperidin-4-yl)methyl]piperidin-4-yl}methyl)piperazin-1-yl]-4-methoxy-1-oxo-2,3-dihydro-1H-isoindol-2-yl}piperidine-2,6-dione] | – |
| < 10 nM | – | – | 50 to 70% | CC1(Oc2ccc3[nH]nc(-c4cc(N5CCC(CN6CC[C@@H](OC7CCN(c8ccc9c(c8F)CN(C8CCC(=O)NC8=O)C9=O)CC7)CC6(C)C)CC5)ncn4)c3c2)CC1 (stereo partly drawn) [Compound 310, 3-[5-(4-{[(4R)-2,2-dimethyl-1-[(1-{6-[5-(1-methylcyclopropoxy)-1H-indazol-3-yl]pyrimidin-4-yl}piperidin-4-yl)methyl]piperidin-4-yl]oxy}piperidin-1-yl)-4-fluoro-1-oxo-2,3-dihydro-1H-isoindol-2-yl]piperidine-2,6-dione] | – |
| – | < 10 nM | 50 to 70% | – | CC1(Oc2ccc3[nH]nc(-c4cc(N5CCC(CCN6CCC7(CN(c8ccc9c(c8F)CN(C8CCC(=O)NC8=O)C9=O)C7)C(F)(F)C6)CC5)ncn4)c3c2)CC1 (stereo not shown) [Compound 376, 3-(5-{5,5-difluoro-7-[2-(1-{6-[5-(1-methylcyclopropoxy)-1H-indazol-3-yl]pyrimidin-4-yl}piperidin-4-yl)ethyl]-2,7-diazaspiro[3.5]nonan-2-yl}-4-fluoro-1-oxo-2,3-dihydro-1H-isoindol-2-yl)piperidine-2,6-dione] | – |
| < 10 nM | – | – | 50 to 70% | COc1c(N2CCC(CN3CC[C@@H](OC4CCN(c5cc(-c6n[nH]c7ccc(OC8(C)CC8)cc67)ncn5)CC4)CC3(C)C)CC2)ccc2c1CN(C1CCC(=O)NC1=O)C2=O (stereo partly drawn) [Compound 319, 3-(5-(4-(((R)-2,2-dimethyl-4-((1-(6-(5-(1-methylcyclopropoxy)-1H-indazol-3-yl)pyrimidin-4-yl)piperidin-4-yl)oxy)piperidin-1-yl)methyl)piperidin-1-yl)-4-methoxy-1-oxoisoindolin-2-yl)piperidine-2,6-dione] | – |
| < 10 nM | – | – | 50 to 70% | Cc1c(N2CCC(O[C@H]3CC[C@H](CN4CCN(c5cc(-c6n[nH]c7ccc(OC8(C)CC8)cc67)ncn5)CC4)CC3)CC2)ccc2c1CN(C1CCC(=O)NC1=O)C2=O (stereo partly shown) [Compound 333, 3-(4-methyl-5-(4-(((1r,4r)-4-((4-(6-(5-(1-methylcyclopropoxy)-1H-indazol-3-yl)pyrimidin-4-yl)piperazin-1-yl)methyl)cyclohexyl)oxy)piperidin-1-yl)-1-oxoisoindolin-2-yl)piperidine-2,6-dione] | – |
| < 10 nM | – | – | 50 to 70% | COc1c(N2CCN(C[C@H]3CC[C@H](OC4CCN(c5cc(-c6n[nH]c7cc(F)c(OC8(C)CC8)cc67)ncn5)CC4)CC3)CC2)ccc2c1CN(C1CCC(=O)NC1=O)C2=O (stereo partly shown) [Compound 281, 3-[4-methoxy-1-oxo-5-(4-{[(1r,4r)-4-[(1-{6-[6-fluoro-5-(1-methylcyclopropoxy)-1H-indazol-3-yl]pyrimidin-4-yl}piperidin-4-yl)oxy]cyclohexyl]methyl}piperazin-1-yl)-2,3-dihydro-1H-isoindol-2-yl]piperidine-2,6-dione] | – |
| – | – | – | – | CC1(Oc2ccc3[nH]nc(-c4cc(C5CCN(CC6CCN(CC7CCN(c8ccc9c(c8)C(=O)N(C8CCC(=O)NC8=O)C9=O)CC7)CC6)CC5)ncn4)c3c2)CC1 (stereo not shown) [Compound 105, 2-(2,6-dioxo-3-piperidyl)-5-[4-[[4-[[4-[6-[5-(1-methylcyclopropoxy)-1H-indazol-3-yl]pyrimidin-4-yl]-1-piperidyl]methyl]-1-piperidyl]methyl]-1-piperidyl]isoindoline-1,3-dione] | Dmax [5]: 50 to 70%; DC50 [6]: ≥ 100 nM |
| – | < 10 nM | 50 to 70% | – | COc1c(N2CC3(CCN(CCOC4CCN(c5cc(-c6n[nH]c7ccc(OC8(C)CC8)cc67)ncn5)CC4)CC3(F)F)C2)ccc2c1CN(C1CCC(=O)NC1=O)C2=O (stereo not shown) [Compound 357, 3-[5-(5,5-difluoro-7-{2-[(1-{6-[5-(1-methylcyclopropoxy)-1H-indazol-3-yl]pyrimidin-4-yl}piperidin-4-yl)oxy]ethyl}-2,7-diazaspiro[3.5]nonan-2-yl)-4-methoxy-1-oxo-2,3-dihydro-1H-isoindol-2-yl]piperidine-2,6-dione] | – |
| – | – | – | – | CC1(Oc2ccc3n[nH]c(-c4cc(N5CCN(CCN6CCN(CC7CCN(c8ccc9c(c8)CN(C8CCC(=O)NC8=O)C9=O)CC7)CC6)CC5)ncn4)c3c2)CC1 (stereo not shown) [Compound 66, 3-{5-[4-({4-[2-(4-{6-[5-(1-methylcyclopropoxy)-2H-indazol-3-yl]pyrimidin-4-yl}piperazin-1-yl)ethyl]piperazin-1-yl}methyl)piperidin-1-yl]-1-oxo-2,3-dihydro-1H-isoindol-2-yl}piperidine-2,6-dione] | Dmax [5]: ≥ 70%; DC50 [6]: < 10 nM |
| – | < 10 nM | 50 to 70% | – | CC1(Oc2ccc3[nH]nc(-c4cnnc(N5CCC(O[C@H]6CC[C@H](CN7CCN(c8ccc9c(c8F)CN(C8CCC(=O)NC8=O)C9=O)CC7)CC6)CC5)c4)c3c2)CC1 (stereo partly shown) [Compound 377, 3-[4-fluoro-1-oxo-5-(4-{[(1r,4r)-4-[(1-{5-[5-(1-methylcyclopropoxy)-1H-indazol-3-yl]pyridazin-3-yl}piperidin-4-yl)oxy]cyclohexyl]methyl}piperazin-1-yl)-2,3-dihydro-1H-isoindol-2-yl]piperidine-2,6-dione] | – |

| SMILES | DC50 [1] | DC50 [2] | Dmax [3] | Dmax [4] | other results |
| --- | --- | --- | --- | --- | --- |
| CC1(Oc2ccc3[nH]nc(-c4cc(N5CCC(CN6CC7CC(C6)N7CC6CCN(c7ccc8c(c7F)CN(C7CCC(=O)NC7=O)C8=O)CC6)CC5)ncn4)c3c2)CC1 (stereo not shown) [Compound 225, 3-{4-fluoro-5-[4-({3-[(1-{6-[5-(1-methylcyclopropoxy)-1H-indazol-3-yl]pyrimidin-4-yl}piperidin-4-yl)methyl]-3,6-diazabicyclo[3.1.1]heptan-6-yl}methyl)piperidin-1-yl]-1-oxo-2,3-dihydro-1H-isoindol-2-yl}piperidine-2,6-dione] | – | < 10 nM | 50 to 70% | – | – |
| CC1(Oc2ccc3n[nH]c(-c4cc(N5CCC(O[C@H]6CC[C@H](OC7CCN(c8ccc9c(c8F)CN(C8CCC(=O)NC8=O)C9=O)CC7)C6)CC5)ncn4)c3c2)CC1 (mixture of isomers) [Compound 240, 3-[4-fluoro-5-[4-[(1S,3S)-3-[[1-[6-[5-(1-methylcyclopropoxy)-2H-indazol-3-yl]pyrimidin-4-yl]-4-piperidyl]oxy]cyclopentoxy]-1-piperidyl]-1-oxo-isoindolin-2-yl]piperidine-2,6-dione and 3-[4-fluoro-5-[4-[(1R,3R)-3-[[1-[6-[5-(1-methylcyclopropoxy)-2H-indazol-3-yl]pyrimidin-4-yl]-4-piperidyl]oxy]cyclopentoxy]-1-piperidyl]-1-oxo-isoindolin-2-yl]piperidine-2,6-dione] | – | < 10 nM | 50 to 70% | – | – |
